Experimental data from patent US8410170B2, “Use of isothiocyanates compounds in treating prostatic diseases and skin cancer” (Wuxi JC Pharmaceutical Technology Co., Ltd., priority 2005, dated 2013).
Where two headings read alike, the source gives them in different places.

How the values were obtained:
[1] = Stability testing of isothiocyanate compositions (60° C., HPLC); assay type: physicochemical; conditions: sealed vials, day 10, HPLC
Experimental: Suitable amount of API (isothiocyanates, as control) and compositions were placed into clean vials, and sealed with rubber stoppers plus aluminum caps. All samples were stored at 60° C., and then assayed by a validated HPLC method at time day 0, day 5, and day 10.

LNCaP AD = experiment: MTT growth inhibition, hormone dependent LNCaP AD; assay type: cell-based; conditions: Homo sapiens, LNCaP, 168 h, read-out: IC50, growth inhibition
Text: The human prostate cancer cell line LNCaP AD was purchased from the American Type Culture Collection. LNCaP AI cell line was derived from LNCaP cells using a method described previously by Gao et al. (Gao, M., Ossowski, L., and Ferrari, A. C. Activation of Rb and decline in androgen receptor protein precede retinoic acid-induced apoptosis in androgen-dependent LNCaP cells and their androgen-independent derivative. J Cell Physiol, 179: 336-346, 1999). The AD and AI cells were maintained in RPMI-1640 with 10% fetal bovine serum (FBS) and charcoal stripped fetal bovine serum, penicillin-streptomycin for incubation at 5% CO2 and 37° C. respectively.
MTT: MTT and SRB method were used to determine the effects of various isothiocyanates on cell growth as described previously (Kreis, Budman et al, 1997). Briefly, human prostate cancer cell line LNCaP grown exponentially were aliquoted into 96-well plates at a density of 2500 cells/200 μl per well. Twenty-four hrs after the incubation, the cells were exposed for seven days to serial dilutions of indicated isothiocyanate or paclitaxel. […] The absorbance was measured at wavelength 540 nm. The percent of cell survival (T/C%) were calculated based on the results of test groups to that of the control group. […]

[2] = tested on: xenograft B16 mouse tumor; conditions: 15 days
Experimental: The B16 mouse melanoma cells at exponential growth phase were suspended in PBS. […] Adjusted the suspension to a cell concentration of approximately 1×10^7/ml. 0.2 ml of the suspension were transplanted subcutaneously into right axillary subcutis for passaging.
Under sterile condition the xenograft B16 mouse tumor in mice was stripped from axillary subcutis. After cutting by scissors, the tumor with saline (1:3) was ground in a glass homogenizer. Monocell suspension was made with saline. […] Then adjusted the suspension to a cell density of approximately 1×10^7/ml with saline. 0.2 ml were transplanted subcutaneously into right axillary subcutis of each mouse. After transplanting, randomly divided the mouse into 5 groups, 12 each.
Tumors were taken out, sizes and weights were measured, and the percent of inhibitions were calculated.

BPH = experiment: Therapeutic effects on BPH: Test One (castrated rats, testosterone propionate); assay type: in vivo, SD rats; conditions: for Average Weight of Prostate: one month
Experimental: Sixty male SD rats were randomly divided into 6 groups, ten each. The animals were anesthetized using ketamine and castrated by removing testis under sterile conditions. After the surgery, the penicillin was injected to prevent the animals from infection. One week later, the testosterone propionate was injected subcutaneously at dose of 1 mg/rat for a month, once a day. Group 1 was served as a negative control group, and the animals of group 1 were given saline orally without any active pharmaceutical ingredient for a month beginning on the same day the testosterone propionate was injected. Group 2 was served as positive control group in which animals were given estradiol subcutaneously at a dose of 0.1 mg/rat for a month beginning on the same day the testosterone propionate was injected. Groups from 3 to 6 was served as drug treatment groups in which animals were given tested articles on the same day the testosterone propionate was injected.
Twenty-four hrs after the last dosage, the animals were euthanized and weighed. Volume and weight of prostate were measured. The averages of volume/weight and organ coefficient (average weight of prostate/average of body weight) were calculated, and statistical analysis performed (t test).

S=C=NCCc1ccccc1 [PEITC, phenethyl isothiocyanate]
API % under 60° C. for 10 days [1]: 95.2% | IC50 (LNCaP AD): 0.6 µM | Changes in Body Weight ([2]; PEITC 70 mg/kg/d gavage (Example 13-16)): 9.78 ± 4.28 g | Average of Tumor Weight ([2]; PEITC 70 mg/kg/d gavage): 1.23 ± 0.68 g | Inhibition ([2]; PEITC 70 mg/kg/d gavage): 39.23% | Changes in Body Weight ([2]; PEITC 120 mg/kg/d gavage (Example 13-16)): 6.34 ± 3.42 g | Average of Tumor Weight ([2]; PEITC 120 mg/kg/d gavage): 0.91 ± 0.23**∇ g | Inhibition ([2]; PEITC 120 mg/kg/d gavage): 58.54% | Average Weight of Prostate (BPH; aqueous base formulation (Example 13-11), 1 mg/kg gavage): 0.75 g | Average Weight of Prostate (BPH; aqueous base formulation (Example 13-11), 4 mg/kg gavage): 0.83 g | Organ Coefficient (BPH; aqueous base formulation, 1 mg/kg): 0.21% | Organ Coefficient (BPH; aqueous base formulation, 4 mg/kg): 0.23% | Average Weight of Prostate (BPH; oil base formulation (Example 13-3), 1 mg/kg gavage): 0.91 g | Average Weight of Prostate (BPH; oil base formulation (Example 13-3), 4 mg/kg gavage): 0.79 g | Organ Coefficient (BPH; oil base formulation, 1 mg/kg): 0.25% | Organ Coefficient (BPH; oil base formulation, 4 mg/kg): 0.23%
